Experimental data reported in patent publication US9012402B1, “Gel for topical delivery of NSAIDs to provide relief of musculoskeletal pain and methods for its preparation” (priority 2014, dated 2015).

How the values were obtained:
[1] = cited from earlier work
[2] = topical, average of seven clinical studies; cited from earlier work
[3] = Fraction of drug unionized at a given pH; format: physicochemical

| SMILES | Log P (octanol: water) [1] | study participants who experienced relief of acute pain [2] | fraction unionized ([3]; at pH 3.5) | fraction unionized ([3]; at pH 6.0) | fraction in the unionized form ([3]; pH of 5 or less) | fraction in unionized form ([3]; pH of 6.5) |
| --- | --- | --- | --- | --- | --- | --- |
| CC(C(=O)O)c1cccc(C(=O)c2ccccc2)c1 (stereo not shown) [Ketoprofen, 2-(3-benzoylphenyl)-propionic acid] | 2.68 | 73% | – | – | – | – |
| O=C(O)Cc1ccccc1Nc1c(Cl)cccc1Cl [diclofenac] | – | 52% | – | – | – | – |
| CC(C)Cc1ccc(C(C)C(=O)O)cc1 (stereo not shown) [ibuprofen] | – | – | 88.8% | 2.45% | > 20% | 0.79% |
